Results as given in PMC8200818, “SPECT/CT Imaging, Biodistribution and Radiation Dosimetry of a ^177Lu-DOTA-Integrin αvβ6 Cystine Knot Peptide in a Pancreatic Cancer Xenograft Model” (Frontiers in Oncology, 2021).

Legend:
[1] = molecular target: T1, integrin αvβ6 (Capan-2 cells) (Homo sapiens, UniProt P06756+P18564); assay: Competition binding assay, Capan-2
T1 construct: endogenous in cells; host or cells: Capan-2 (whole adherent cells)
Description: (§1) The reaction volume was made up to 30 µl with water. The reaction was carried out for 10 minutes at 80°C.
(§2) For competitive radioligand binding assay, approximately 50,000 cells (BxPC-3 or Capan-2) per well were seeded in a 96 well plate incubated overnight at 37°C. […] After 2 hours of incubation, cells were washed for 2-3 times with ice-cold washing buffer (50 mM Tris-HCl, pH 7.4, 125 mM NaCl, 0.05% BSA) and lysed with 1 N NaOH (80 µl/well). The lysed cells were transferred to vials and measured in a gamma counter (Wallac 1470 Wizard, Perkin Elmer, Waltham, MA, USA). Obtained cpm values were plotted with GraphPad Prism and the data fitted using nonlinear regression (one site - fit Ki, one site - fit logIC50).
(§3) All statistical analyses were performed using GraphPad Prism 5.04. IC50 values were determined by nonlinear sigmoidal curve fitting with variable slope setting. All presented data are based on independent experiments. Numerical data for this study have been deposited in an open data repository for public access: http://doi.org/10.5281/zenodo.4362503.

[2] = molecular target: T2, integrin αvβ6 (BxPC-3 cells) (Homo sapiens, UniProt P06756+P18564); assay: Competition binding assay, BxPC-3; conditions: BxPC-3
T2 construct: endogenous in cells; host or cells: BxPC-3 (whole adherent cells)
Description: as §1, §2, §3

integrin αvβ6 = conditions: cited from earlier work
Text: Cystine knot peptides (knottins) represent small peptides of approximately 4 kDa with three threaded disulfide bonds that form a rigid topological knot constraining the peptide’s conformational flexibility. Such a structural motif is known as a cystine knot ([21], [22]). One of the advantages of knottins is the high variability of backbone residues that may be used to modulate tumor and kidney uptake ([23]). Knottins are well suited for in vivo tumor-targeting applications as their disulfide-bonded core confers outstanding thermal stability and resistance against proteolytic degradation; moreo ...

[3] = cited from earlier work
Capan-2 xenografts = conditions: day 1 versus day 8 after injection; single dose; listed as DOTA-integrin αvβ6 knottin
[4] = displacement of ^125I-DOTA-integrin αvβ6 knottin (100,000 cpm), 2 h, pH 7.4, mean ± S.E.M. (3 ≤ n ≤ 4), read-out: Inhibitory constant (Ki)

T2 sequence (P06756 31-889 limits assumed): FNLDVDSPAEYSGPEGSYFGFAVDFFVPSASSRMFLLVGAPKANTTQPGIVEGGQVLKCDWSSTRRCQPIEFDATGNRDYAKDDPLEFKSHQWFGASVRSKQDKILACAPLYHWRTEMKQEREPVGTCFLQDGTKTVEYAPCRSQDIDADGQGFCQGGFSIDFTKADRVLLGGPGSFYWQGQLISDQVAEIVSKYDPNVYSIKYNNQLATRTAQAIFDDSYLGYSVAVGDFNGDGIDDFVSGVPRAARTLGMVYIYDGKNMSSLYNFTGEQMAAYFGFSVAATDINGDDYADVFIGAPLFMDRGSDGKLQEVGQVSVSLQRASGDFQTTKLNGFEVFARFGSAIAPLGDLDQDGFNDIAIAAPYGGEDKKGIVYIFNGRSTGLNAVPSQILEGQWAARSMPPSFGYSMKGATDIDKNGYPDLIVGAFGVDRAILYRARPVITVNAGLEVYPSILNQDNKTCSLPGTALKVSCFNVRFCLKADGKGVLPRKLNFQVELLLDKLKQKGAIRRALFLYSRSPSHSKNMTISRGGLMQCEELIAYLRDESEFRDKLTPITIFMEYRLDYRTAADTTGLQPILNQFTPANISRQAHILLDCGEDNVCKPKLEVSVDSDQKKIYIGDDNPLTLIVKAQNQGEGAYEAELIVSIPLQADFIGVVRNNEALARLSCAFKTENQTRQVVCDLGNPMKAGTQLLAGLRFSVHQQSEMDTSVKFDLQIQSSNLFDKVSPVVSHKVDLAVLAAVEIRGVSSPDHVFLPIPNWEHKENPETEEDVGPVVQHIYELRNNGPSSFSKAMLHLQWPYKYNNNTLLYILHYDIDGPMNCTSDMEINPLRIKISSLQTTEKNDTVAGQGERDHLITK
T2 sequence (P06756 891-1048 partner limits assumed): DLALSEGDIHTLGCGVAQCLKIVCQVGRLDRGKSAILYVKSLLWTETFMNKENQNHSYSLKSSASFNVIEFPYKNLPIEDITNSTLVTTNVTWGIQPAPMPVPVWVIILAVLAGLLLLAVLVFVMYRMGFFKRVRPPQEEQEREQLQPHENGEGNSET
T2 sequence (P18564 22-788): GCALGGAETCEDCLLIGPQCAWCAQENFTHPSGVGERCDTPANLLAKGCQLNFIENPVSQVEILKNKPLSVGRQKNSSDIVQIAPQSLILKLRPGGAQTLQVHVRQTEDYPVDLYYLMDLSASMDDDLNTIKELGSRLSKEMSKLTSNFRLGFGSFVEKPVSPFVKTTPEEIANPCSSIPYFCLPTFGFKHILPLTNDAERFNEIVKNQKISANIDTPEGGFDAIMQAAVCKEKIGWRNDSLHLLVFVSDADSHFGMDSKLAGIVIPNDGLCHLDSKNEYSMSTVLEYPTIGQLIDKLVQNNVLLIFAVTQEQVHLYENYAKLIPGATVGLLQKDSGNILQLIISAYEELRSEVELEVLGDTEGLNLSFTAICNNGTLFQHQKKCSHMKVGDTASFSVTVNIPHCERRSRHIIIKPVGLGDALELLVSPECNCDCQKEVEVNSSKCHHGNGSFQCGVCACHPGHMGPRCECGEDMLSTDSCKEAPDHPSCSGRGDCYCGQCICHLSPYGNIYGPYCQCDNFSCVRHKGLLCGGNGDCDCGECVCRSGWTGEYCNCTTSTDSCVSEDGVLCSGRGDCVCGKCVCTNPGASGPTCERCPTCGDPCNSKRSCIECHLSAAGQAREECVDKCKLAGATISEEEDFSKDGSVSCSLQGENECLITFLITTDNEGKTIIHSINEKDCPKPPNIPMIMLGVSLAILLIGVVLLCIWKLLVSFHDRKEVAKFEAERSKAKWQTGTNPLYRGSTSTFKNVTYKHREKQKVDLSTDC
T1 sequence (P06756 31-889 limits assumed): as the sequence (P06756 31-889 limits assumed) above
T1 sequence (P06756 891-1048 partner limits assumed): as the sequence (P06756 891-1048 partner limits assumed) above
T1 sequence (P18564 22-788): as the sequence (P18564 22-788) above

| Compound | Effect of DOTA / ^natLu chelation on affinity [1] | Effect of DOTA / ^natLu chelation on affinity [2] | Binding affinity for integrin αvβ6 (integrin αvβ6) | Stability and affinity to the receptor in vivo [3] | Tumor uptake (previous) ([3]; in vivo) | Ki [1, 4] [nM] | Ki [2, 4] [nM] | Tissue structure of xenografts (H&E) (Capan-2 xenografts) |
| --- | --- | --- | --- | --- | --- | --- | --- | --- |
| CC[C@H](C)[C@@H]1NC(=O)[C@@H](NC(=O)CN)CSSC[C@@H]2NC(=O)[C@H](C)NC(=O)CNC(=O)[C@@H]3CCCN3C(=O)[C@@H]3CSSC[C@@H](C(=O)NCC(=O)O)NC(=O)[C@H](Cc4ccc(O)cc4)NC(=O)CNC(=O)[C@H](CC(N)=O)NC(=O)CNC(=O)[C@H](CCCNC(=N)N)NC(=O)[C@H](CSSC[C@H](NC(=O)[C@H](CCCNC(=N)N)NC(=O)[C@H](Cc4ccccc4)NC(=O)[C@H](CC(C)C)NC(=O)[C@H](CC(C)C)NC(=O)[C@H]([C@@H](C)O)NC(=O)CNC(=O)[C@H](CC(C)C)NC(=O)[C@H](CC(=O)O)NC(=O)[C@H]([C@@H](C)O)NC(=O)[C@H](CCCNC(=N)N)NC(=O)CNC(=O)[C@H](CC(N)=O)NC(=O)[C@H](CC(C)C)NC1=O)C(=O)N[C@@H](CCCNC(=N)N)C(=O)N[C@@H](CCCNC(=N)N)C(=O)N[C@@H](CC(=O)O)C(=O)N[C@@H](CO)C(=O)N[C@@H](CC(=O)O)C(=O)N3)NC(=O)[C@H]([C@@H](C)CC)NC2=O [knottin] | did not change upon either the addition of a DOTA chelator moiety or incorporation of natural non-radioactive lutetium | did not change upon either the addition of a DOTA chelator moiety or incorporation of natural non-radioactive lutetium | low single-digit nanomolar binding affinity | not compromised in vivo | favorable tumor uptake | – | – | – |
| CC[C@H](C)[C@@H]1NC(=O)[C@@H](NC(=O)CNC(=O)CN2CCN(CC(=O)O)CCN(CC(=O)O)CCN(CC(=O)O)CC2)CSSC[C@@H]2NC(=O)[C@H](C)NC(=O)CNC(=O)[C@@H]3CCCN3C(=O)[C@@H]3CSSC[C@@H](C(=O)NCC(=O)O)NC(=O)[C@H](Cc4ccc(O)cc4)NC(=O)CNC(=O)[C@H](CC(N)=O)NC(=O)CNC(=O)[C@H](CCCNC(=N)N)NC(=O)[C@H](CSSC[C@H](NC(=O)[C@H](CCCNC(=N)N)NC(=O)[C@H](Cc4ccccc4)NC(=O)[C@H](CC(C)C)NC(=O)[C@H](CC(C)C)NC(=O)[C@H]([C@@H](C)O)NC(=O)CNC(=O)[C@H](CC(C)C)NC(=O)[C@H](CC(=O)O)NC(=O)[C@H]([C@@H](C)O)NC(=O)[C@H](CCCNC(=N)N)NC(=O)CNC(=O)[C@H](CC(N)=O)NC(=O)[C@H](CC(C)C)NC1=O)C(=O)N[C@@H](CCCNC(=N)N)C(=O)N[C@@H](CCCNC(=N)N)C(=O)N[C@@H](CC(=O)O)C(=O)N[C@@H](CO)C(=O)N[C@@H](CC(=O)O)C(=O)N3)NC(=O)[C@H]([C@@H](C)CC)NC2=O [^natLu DOTA knottin, metal not drawn] | did not compromise the high affinity of the tracer | did not compromise the high affinity of the tracer | – | – | – | – | – | – |
| CC[C@H](C)[C@@H]1NC(=O)[C@@H](NC(=O)CNC(=O)CN2CCN(CC(=O)O)CCN(CC(=O)O)CCN(CC(=O)O)CC2)CSSC[C@@H]2NC(=O)[C@H](C)NC(=O)CNC(=O)[C@@H]3CCCN3C(=O)[C@@H]3CSSC[C@@H](C(=O)NCC(=O)O)NC(=O)[C@H](Cc4ccc(O)cc4)NC(=O)CNC(=O)[C@H](CC(N)=O)NC(=O)CNC(=O)[C@H](CCCNC(=N)N)NC(=O)[C@H](CSSC[C@H](NC(=O)[C@H](CCCNC(=N)N)NC(=O)[C@H](Cc4ccccc4)NC(=O)[C@H](CC(C)C)NC(=O)[C@H](CC(C)C)NC(=O)[C@H]([C@@H](C)O)NC(=O)CNC(=O)[C@H](CC(C)C)NC(=O)[C@H](CC(=O)O)NC(=O)[C@H]([C@@H](C)O)NC(=O)[C@H](CCCNC(=N)N)NC(=O)CNC(=O)[C@H](CC(N)=O)NC(=O)[C@H](CC(C)C)NC1=O)C(=O)N[C@@H](CCCNC(=N)N)C(=O)N[C@@H](CCCNC(=N)N)C(=O)N[C@@H](CC(=O)O)C(=O)N[C@@H](CO)C(=O)N[C@@H](CC(=O)O)C(=O)N3)NC(=O)[C@H]([C@@H](C)CC)NC2=O [DOTA knottin] | – | – | – | – | – | 9.46 ± 5.21 | 1.69 ± 1.3 | no significant impact was observed |
